Reference: US20120076781A1, “METHODS OF TREATING CANCERS WITH HER3 ANTISENSE OLIGONUCLEOTIDES” (ENZON PHARMACEUTICALS, INC., priority 2009, published 2012)
Marks after values point to notes of the source that are not given here. In the oligonucleotide strings, read from the 5' end, every base follows the letter of its sugar. An asterisk marks phosphorothioate; unmarked linkages are phosphodiester. Other units and linkages are bracketed, terminal groups are in braces. A string of capitals states the bases alone. l = locked nucleic acid (LNA); [5mC] = 5-methylcytosine; d = 2'-deoxy (DNA)

Legend:
human HER3 mRNA [1] = test: Down-regulation of HER3 mRNA in transfected HUH-7 cells, real-time PCR; type: cell-based; settings: 25 nM, HUH-7 cells (indicated by *)
Experimental: HUH7: The human hepatocarcinoma cell line was cultured in DMEM (Sigma)+10% fetal bovine serum (FBS)+2 mM Glutamax I+gentamicin (25 μg/ml)+1× Non Essential Amino Acids.
The cells were treated with oligonucleotides using the cationic liposome formulation LipofectAMINE 2000 (Gibco) as transfection vehicle. Cells were seeded in 6-well cell culture plates (NUNC) and treated when 80-90% confluent. Oligomer concentrations ranged from 1 nM to 25 nM final concentration. Formulation of oligomer-lipid complexes was carried out essentially as described by the manufacturer using serum-free OptiMEM (Gibco) and a final lipid concentration of 5 μg/mL LipofectAMINE 2000. […]
(§1) The sample content of human HER3, EGFR and HER2 mRNA was quantified using the human HER3, EGFR and HER2 ABI Prism Pre-Developed TaqMan Assay Reagents (Applied Biosystems cat. no. Hs00951444_ml (HER3), Hs00193306_ml (EGFR) and Hs00170433_ml (HER2) according to the manufacturer's instructions.
Glyceraldehyde-3-phosphate dehydrogenase (GAPDH) mRNA quantity was used as an endogenous control for normalizing any variance in sample preparation. The sample content of human GAPDH mRNA was quantified using the human GAPDH ABI Prism Pre-Developed TaqMan Assay Reagent (Applied Biosystems cat. no. 4310884E) according to the manufacturer's instructions. […]

human HER3 mRNA [2] = test: HER3 mRNA knockdown in 15PC3 xenograft tumor in nude mice, qd x 5 (qRT-PCR); type: in vivo; settings: i.v., relative to saline controls
Experimental: (§2) To evaluate the knockdown efficacy of the HER3 oligomeric compounds in vivo, the female nude mice bearing 15PC3 xenografts developed by subcutaneous injection of 5×10^6 cells/mouse into the right axillary flank, were injected intravenously with the oligomers at various doses and injection schedules (i.e. single dose, qd, q3d, q4d). Scrambled oligomer SEQ ID NO: 236 served as a negative control. 24 hours after the last injection, the mice were euthanized and liver and tumor tissues were collected in RNAlater solution (Ambion). Total RNA was purified from the tissues and the levels of HER3 mRNA were determined by quantitative reverse transcription-real time PCR (qRT-PCR) using the QuantiTect Probe RT-PCR kit (Cat#: 204443; Qiagen). GAPDH mRNA served as an internal control.
(§3) 200 ng of total RNA was used in the PCR reaction. The data analyses were performed by using the ABI-7500 PCR Fast System included software.
(§4) Data in Table 5 are presented as % HER3 mRNA levels relative to saline treated controls in liver and tumor samples after i.v. dosing of animals on 5 consecutive days with oligonucleotides in the doses indicated.

HER3 mRNA [3] = test: HER3 mRNA knockdown in 15PC3 xenograft tumor, different dosing cycle; type: in vivo, human; settings: every third day
Experimental: as §2
(§5) The knockdown efficacy of oligomers was evaluated in vivo in nude mice bearing xenograft tumors derived from 15PC3 cells or A549 cells (NSCLC) or N87 cells (gastric carcinoma) using a similar protocol to the one described above in Example 11. Oligomers were administered by injection every third day in 2-4 doses. Tissues were harvested 3 or 4 days after the last injection.
(§6) Data in Tables 6 and 7 are presented as % HER3 mRNA or HIF-1 alpha mRNA relative to saline treated controls in liver and tumor samples after i.v. dosing of animals with the indicated oligomers.

HIF-1 alpha mRNA = HIF-1 alpha mRNA in 15PC3 xenograft tumor, different dosing cycle; type: in vivo, human; settings: every third day
Experimental: as §2, §5, §6

HER3 mRNA [4] = test: HER3 mRNA knockdown in liver of xenograft-bearing nude mice, different dosing cycle; type: in vivo, mouse; settings: for Liver HER3 mRNA relative to saline treated controls: 15PC3 xenograft mice, every third day
Experimental: as §2
as §5, with “Oligomers were administered by injection every third day in 2-4 doses.” left out
as §6

human HER2 mRNA = test: Down-regulation of HER2 mRNA in transfected 15PC3 cells, real-time PCR; type: cell-based; settings: 25 nM
Experimental: (§7) 15PC3: The human prostate cancer cell line 15PC3 was cultured in DMEM (Sigma)+10% fetal bovine serum (FBS)+2 mM Glutamax I+gentamicin (25 μg/ml).
(§8) The cells were treated with oligonucleotides using the cationic liposome formulation LipofectAMINE 2000 (Gibco) as transfection vehicle. Cells were seeded in 6-well cell culture plates (NUNC) and treated when 80-90% confluent. Oligomer concentrations ranged from 1 nM to 25 nM final concentration. Formulation of oligomer-lipid complexes was carried out essentially as described by the manufacturer using serum-free OptiMEM (Gibco) and a final lipid concentration of 5 μg/mL LipofectAMINE 2000. Cells were incubated at 37° C. for 4 hours and treatment was stopped by removal of oligomer-containing culture medium. Cells were washed and serum-containing medium was added. After oligomer treatment, cells were allowed to recover for 20 hours before they were harvested for RNA analysis.
(§9) Total RNA was extracted from cells transfected as described above and using the Qiagen RNeasy kit (Qiagen cat. no. 74104) according to the manufacturer's instructions. First strand synthesis was performed using Reverse Transcriptase reagents from Ambion according to the manufacturer's instructions.
(§10) For each sample 0.5 μg total RNA was adjusted to (10.8 μl) with RNase free H2O and mixed with 2 μl random decamers (50 μM) and 4 μl dNTP mix (2.5 mM each dNTP) and heated to 70° C. for 3 min after which the samples were rapidly cooled on ice. After cooling the samples on ice, 2 μl 10× Buffer RT, 1 μl MMLV Reverse Transcriptase (100 U/μl) and 0.25 μl RNase inhibitor (10 U/μl) was added to each sample, followed by incubation at 42° C. for 60 min, heat inactivation of the enzyme at 95° C. for 10 min, and then cooling the sample to 4° C.
as §1
(§11) Glyceraldehyde-3-phosphate dehydrogenase (GAPDH) mRNA quantity was used as an endogenous control for normalizing any variance in sample preparation. The sample content of human GAPDH mRNA was quantified using the human GAPDH ABI Prism Pre-Developed TaqMan Assay Reagent (Applied Biosystems cat. no. 4310884E) according to the manufacturer's instructions.
(§12) The cDNA from the first strand synthesis performed as described in Example 5 was diluted 2-20 times, and analyzed by real time quantitative PCR using Taqman 7500 FAST or 7900 FAST from Applied Biosystems. The primers and probe were mixed with 2× Taqman Fast Universal PCR master mix (2×) (Applied Biosystems Cat. #4364103) and added to 4 μl cDNA to a final volume of 10 μl. Each sample was analysed in duplicate. Assaying 2-fold dilutions of a cDNA that had been prepared on material purified from a cell line expressing the RNA of interest generated standard curves for the assays. Sterile H2O was used instead of cDNA for the no-template control. PCR program: 95° C. for 30 seconds, followed by 40 cycles of 95° C., 3 seconds, 60° C., 20-30 seconds. Relative quantities of target mRNA sequence were determined from the calculated Threshold cycle using the Applied Biosystems Fast System SDS Software Version 1.3.1.21. or SDS Software Version 2.3.
(§13) Oligonucleotides presented in Table 4 were evaluated for their potential to down-regulate HER3, EGFR and HER2 mRNA at concentrations of 1, 5 and 25 nM in 15PC3 cells (or HUH-7 as indicated by *) (see FIGS. 2, 3, 4 and 5). SEQ ID NOs: 235 and 236 were used as scrambled controls.
(§14) The data in Table 4 are presented as percentage down-regulation of mRNA relative to mock transfected cells at 25 nM. Lower-case letters represent DNA monomers, bold, upper-case letters represent β-D-oxy-LNA monomers. All cytosines in LNA monomers are 5-methylcytosines. Subscript “s” represents a phosphorothioate linkage.

Mouse HER3 mRNA = test: HER3 mRNA knockdown in liver of nude mice bearing 15PC3 xenografts, qd x 5 (qRT-PCR); type: in vivo; settings: i.v.
Experimental: as §2, §3, §4

human EGFR mRNA = test: Down-regulation of EGFR mRNA in transfected 15PC3 cells, real-time PCR; type: cell-based; settings: 25 nM
Experimental: as §7, §8, §9, §10, §1, §11, §12, §13, §14

HER3 mRNA [5] = test: HER3 mRNA knockdown in A549 (NSCLC) xenograft tumor; type: in vivo, human; settings: 35 mg/kg, q4d x 3, i.v.
Experimental: as §2, §5, §6

Question: “CSASTScSaScStScStSgSgStSgSTSGST (l[5mC]*lA*lT*dC*dA*dC*dT*dC*dT*dG*dG*dT*dG*lT*lG*lT; antisense) [SEQ ID NO: 195]” was tested. Which “HER3: percentage down-regulation of mRNA relative to mock transfected cells” value (human HER3 mRNA [1]) did it give?
Answer: 64.4%*

Question: What does the source list for “GSCSTScScSaSgSaScSaStScSaSCSTSC (antisense lG*l[5mC]*lT*dC*dC*dA*dG*dA*dC*dA*dT*dC*dA*l[5mC]*lT*l[5mC]) [SEQ ID NO: 169, β-D-oxy-LNA/DNA phosphorothioate gapmer antisense oligonucleotide targeting HER3]”?
Answer: HER3 mRNA Tumor (human HER3 mRNA [2]; 37.7 mg/kg): 77 ± 10%; Tumor HER3 mRNA relative to saline treated controls (HER3 mRNA [3]; 37.7 x 4 mg/kg i.v.): 81.6 ± 12.7%; Tumor Hif1A mRNA relative to saline treated controls (HIF-1 alpha mRNA; 37.7 x 4 mg/kg i.v.): 94.6 ± 19.6%; Liver HER3 mRNA relative to saline treated controls (HER3 mRNA [4]; 37.7 x 4 mg/kg i.v.): 39 ± 4.6%; HER2: percentage down-regulation of mRNA relative to mock transfected cells (human HER2 mRNA): 75.8%; HER3 mRNA Liver (Mouse HER3 mRNA; 11.3 mg/kg): 10.2 ± 5.5 % of Sal ctrl; HER3 mRNA Liver (Mouse HER3 mRNA; 37.7 mg/kg): 20.7 ± 9.8 % of Sal ctrl; EGFR: percentage down-regulation of mRNA relative to mock transfected cells (human EGFR mRNA): 95.2%

Question: For “CSGSCSASgSaStStSaSgSaSaSASCSCSt (l[5mC]*lG*l[5mC]*lA*dG*dA*dT*dT*dA*dG*dA*dA*lA*l[5mC]*l[5mC]*dT) [SEQ ID NO: 236, scrambled oligomer, negative control, reference compound]”, which “HER3 mRNA Tumor” value (human HER3 mRNA [2]; 22.9 mg/kg) is on record?
Answer: 119.3 ± 24.9%

Question: What about the “HER3 mRNA Tumor” value (human HER3 mRNA [2]; 30 mg/kg) of the same substance?
Answer: 101.2 ± 21.1%

Question: What about the “HER3 mRNA Tumor” value (human HER3 mRNA [2]; 60 mg/kg) of the same substance?
Answer: 95.5 ± 12.7%

Question: What about the “HER3 mRNA Tumor” value (human HER3 mRNA [2]; 76.3 mg/kg) of the same substance?
Answer: 100 ± 10.5%

Question: What about the “Tumor HER3 mRNA relative to saline treated controls” value (HER3 mRNA [3]; 76.3 x 4 mg/kg i.v.) of the same substance?
Answer: 106 ± 6.6%

Question: And the “HER3 Tumor” value (HER3 mRNA [5])?
Answer: 87.6 ± 11.9 % saline control

Question: What about the “Tumor Hif1A mRNA relative to saline treated controls” value (HIF-1 alpha mRNA; 76.3 x 4 mg/kg i.v.) of the same substance?
Answer: 101 ± 13.8%

Question: What about the “Liver HER3 mRNA relative to saline treated controls” value (HER3 mRNA [4]; 76.3 x 4 mg/kg i.v.) of the same substance?
Answer: 115.9 ± 26.3%

Question: And the “HER3 Liver” value (HER3 mRNA [4]; A549 xenograft mice, 35 mg/kg, q4d x 3, i.v.)?
Answer: 97.5 ± 21.2 % saline control

Question: What about the “HER3 mRNA Liver” value (Mouse HER3 mRNA; 22.9 mg/kg) of the same substance?
Answer: 81.4 ± 6.5 % of Sal ctrl

Question: What about the “HER3 mRNA Liver” value (Mouse HER3 mRNA; 30 mg/kg) of the same substance?
Answer: 87.6 ± 19 % of Sal ctrl

Question: What about the “HER3 mRNA Liver” value (Mouse HER3 mRNA; 60 mg/kg) of the same substance?
Answer: 86.5 ± 9.9 % of Sal ctrl

Question: What about the “HER3 mRNA Liver” value (Mouse HER3 mRNA; 76.3 mg/kg) of the same substance?
Answer: 78 ± 17 % of Sal ctrl
